The test system of the assay is M. abscessus cells. The experiment in a line: Cell growth assay of ABIα plus antibiotic, Fractional Inhibitory Concentration (FIC) index. Particulars: antibiotic in combination with ABIα cocktail; FIG. 5. It is filed as cell-based, Mycobacterium abscessus.
As for `NCC[C@H](O)C(=O)N[C@@H]1C[C@H](N)[C@@H](O[C@H]2O[C@H](CN)[C@@H](O)[C@H](O)[C@H]2O)[C@H](O)[C@H]1O[C@H]1O[C@H](CO)[C@@H](O)[C@H](N)[C@H]1O` [amikacin], the “interaction by Fractional Inhibitory Concentration (FIC) index on attenuation of M. abscessus growth” value is recorded as “synergistic effects”.
In the case of `C[C@@H](O)[C@H]1C(=O)N2C(C(=O)[O-])=C(SC3Cn4cnc[n+]4C3)[C@H](C)[C@H]12` (stereo partly drawn) [biapenem] it was “synergistic effects”.
`CO[C@@]1(NC(=O)Cc2cccs2)C(=O)N2C(C(=O)O)=C(COC(N)=O)CS[C@@H]21` [cefoxitin]: the “interaction by Fractional Inhibitory Concentration (FIC) index on attenuation of M. abscessus growth” value is “synergistic effects”.

These data come from patent publication US20230120142A1, “COMPOSITIONS AND METHODS FOR THE TREATMENT OF INTRACELLULAR BACTERIAL INFECTIONS” (Endolytix Technology, Inc., priority 2020, published 2023).
